Data published in patent US9732085B2, “Pyridinone and pyrimidinone derivatives as factor Xia” (ONO PHARMACEUTICAL CO., LTD., priority 2011, dated 2017).
Where two headings read alike, the source gives them in different places.

Key:
Human Factor XIa = Human Factor XIa (Homo sapiens (Human), UniProt P03951); assay: Factor XIa enzyme activity (chromogenic substrate S-2366); type: biochemical; conditions: read-out: In vitro FXIa inhibitory activity IC50
Experimental: Inhibitory activities of compounds of the present invention against factor XIa, Xa, XIIa, IXa, VIIa, plasma kallikrein or thrombin were evaluated using appropriate purified proteases and synthetic substrates. The rate of hydrolysis of the chromogenic substrate by the relevant protease was continuously measured at 405 nm.
Inhibitory activity against each enzyme was calculated as % inhibition using the equation described below. % Inhibition=[[(rate without compound)−(rate with compound)](rate without compound)]×100%. Each half maximal inhibitory concentration (IC50) value was determined by plotting the concentration of compound of the invention against the % inhibition. (1-1) Factor XIa Enzyme Activity
Human Factor XIa (Haematologic Technologies Inc.) activity was measured at an enzyme concentration of 0.1 U/mL in 150 mM NaCl, 5 mM KCl, 1 mg/mL PEG6000, 50 mM HEPES-NaOH (pH7.4) with 300 μM S-2366 (pyroGlu-Pro-Arg-pNA, Chromogenix).

[1] = Rat oral administration test (plasma concentration via FXIa inhibitory activity); type: in vivo; conditions: fasted male Crj:CD(SD)IGS rats, single 3 mg/kg p.o., 20% wellsolve, read-out: rat plasma concentration after po administration Cmax at 3 mpk
Experimental: Each compound of the present invention in a solution of 20% wellsolve (celeste) was given to fasted male Crj:CD(SD)IGS rats as a single 3 mg/kg, p.o. dose by gavage. Blood samples were drawn from jugular vein into syringes containing 3.2% sodium citrate (the volume ratio of blood to anticoagulant=9:1) after oral administration at 0.5, 1, 2, 4 and 6 hours. Plasma was harvested by centrifugation and stored at −20° C. until measurement of plasma concentration.
To measure plasma concentrations of the compounds of the present invention, plasma samples were deproteinized with acetonitrile, followed by evaporation of the acetonitrile to dryness. The residual was then re-dissolved with DMSO and its FXIa inhibitory activity was measured by enzyme assay described above. Plasma concentrations of each compound of the present invention were quantitated by generating a standard curve of known compound concentration in rat plasma.

[2] = Pharmacokinetic (PK) study of the compound which has an ester group(s) in rat; type: in vivo; conditions: plasma, po, fasted male Crj:CD(SD) rats, single 3 mg/kg p.o., analyte: administered ester compound, read-out: rat plasma concentration of ester compound after po administration Cmax at 3mpk
Experimental: Each compound of the present invention in a solution of 20% wellsolve (celeste) was given to fasted male Crj:CD(SD) rats as a single 3 mg/kg, p.o. dose by gavage. Blood samples were drawn from jugular vein into syringes treated with heparin-diisopropyl fluorophosphate mixture (500:1) at 0.5, 1, 3, 7 hours after oral administration. Plasma was obtained by centrifugation and stored at −20° C. until measurement of plasma concentration.
To measure plasma concentrations of the compounds of the present invention, plasma samples were deproteinized with acetonitrile, followed by evaporation of the acetonitrile to dryness. Then the sample was reconstituted in the mobile phase and analyzed by LC/MS/MS. An analytical column (Shim-pack XR-ODS II, 2.0 mm×75 mm, 2.2 μm) and mobile phase (0.1% formic acid in water and 0.1% formic acid in acetonitrile, flow rate of 0.5 mL/min) were used. The system was used in multiple reaction monitoring (MRM) mode with positive ion detection.

[3] = Table 2, comparison with comparative compounds
[4] = human Factor XIa 0.1 U/mL, 300 μM S-2366, pH7.4

Human Factor XIa, sequence (P03951 388-625): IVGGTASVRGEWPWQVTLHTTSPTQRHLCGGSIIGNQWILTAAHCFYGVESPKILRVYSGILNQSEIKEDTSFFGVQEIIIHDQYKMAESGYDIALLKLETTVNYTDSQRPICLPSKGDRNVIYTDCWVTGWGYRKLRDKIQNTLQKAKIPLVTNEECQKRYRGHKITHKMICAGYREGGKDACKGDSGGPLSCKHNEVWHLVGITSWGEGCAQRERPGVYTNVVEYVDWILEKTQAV
Human Factor XIa, sequence (P03951 19-387 partner): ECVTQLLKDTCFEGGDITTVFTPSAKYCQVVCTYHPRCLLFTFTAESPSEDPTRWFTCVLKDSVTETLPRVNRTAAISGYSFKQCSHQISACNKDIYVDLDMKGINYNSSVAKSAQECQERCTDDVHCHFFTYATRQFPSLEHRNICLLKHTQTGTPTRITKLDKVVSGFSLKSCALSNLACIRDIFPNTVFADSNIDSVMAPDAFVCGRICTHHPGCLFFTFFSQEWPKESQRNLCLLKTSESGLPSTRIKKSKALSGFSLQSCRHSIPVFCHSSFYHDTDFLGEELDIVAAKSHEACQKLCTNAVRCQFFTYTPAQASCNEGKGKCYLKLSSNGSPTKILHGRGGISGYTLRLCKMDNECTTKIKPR

SMILES | IC50 (Human Factor XIa; [3]) [nM] | Cmax [1] [nM] | IC50 (Human Factor XIa; [4]) [nM] | Cmax [2] [nM]
COC(=O)Nc1ccc(-c2[nH]c([C@H](Cc3ccccc3)NC(=O)CCc3cc(Cl)ccc3-n3cnnn3)nc2Cl)cc1 [Comp Ex 1, reference compound] | 3.6 | 15 | – | –
COC(=O)Nc1ccc(-c2[nH]c([C@H](C)NC(=O)/C=C/c3cc(Cl)ccc3-n3cnnn3)nc2Cl)cc1 [Comp Ex 2, reference compound] | – | 25 | – | –
COC(=O)Nc1ccc(-c2cnc(C3CCc4nc(-c5cc(Cl)ccc5-n5cnnn5)cc(=O)n43)[nH]2)cc1 (centres unmarked) [Example 41, methyl[4-(2-{2-[5-chloro-2-(1H-tetrazol-1-yl)phenyl]-4-oxo-4,6,7,8-tetrahydropyrrolo[1,2-a]pyrimidin-6-yl}-1H-imidazol-5-yl)phenyl]carbamate] | 6.5 | 2280 | 6.5 | –

Results, then the compound that gave them:

IC50 (Human Factor XIa; [3]) [nM] | Cmax [1] [nM] | IC50 (Human Factor XIa; [4]) [nM] | Cmax [2] [nM] | SMILES
– | 88 | – | – | COC(=O)Nc1ccc(-c2[nH]c(CNC(=O)/C=C/c3cc(Cl)ccc3-n3cnnn3)nc2Cl)cc1 [Comp Ex 3, reference compound]
15 | 1250 | 15 | – | COC(=O)Nc1ccc(-c2[nH]c(C3CCc4cc(-c5cc(Cl)ccc5-n5cnnn5)cc(=O)n43)nc2Cl)cc1 (centres unmarked) [Example 45, methyl[4-(4-chloro-2-{7-[5-chloro-2-(1H-tetrazol-1-yl)phenyl]-5-oxo-1,2,3,5-tetrahydro-3-indolizinyl}-1H-imidazol-5-yl)phenyl]carbamate]
2.4 | 510 | 2.4 | – | COC(=O)Nc1ccc(-c2[nH]c(Cn3ccc(-c4cc(Cl)ccc4-n4cnnn4)cc3=O)nc2Cl)cc1 [Example 57, methyl{4-[5-chloro-2-({4-[5-chloro-2-(1H-tetrazol-1-yl)phenyl]-2-oxo-1(2H)-pyridinyl}methyl)-1H-imidazol-4-yl]phenyl}carbamate]
– | – | – | 960 | CCOC(=O)c1ccc(-c2cnc([C@@H]3CCc4cc(-c5cc(Cl)ccc5-n5cnnn5)cc(=O)n43)[nH]2)s1 [Example 401, ethyl 5-(2-{(3S)-7-[5-chloro-2-(1H-tetrazol-1-yl)phenyl]-5-oxo-1,2,3,5-tetrahydro-3-indolizinyl}-1H-imidazol-5-yl)-2-thiophenecarboxylate]
